Reference: patent publication US20050175535A1 (CV Therapeutics, Inc., priority 2000, published 2005)
Where two headings read alike, the source gives them in different places.

How the values were obtained:
A2A adenosine receptors = A2A adenosine receptors (Sus scrofa, UniProt K9IW67); experiment: Competitive radioligand binding, [3H]ZM241385, pig striatum membranes; details: [3H]ZM241385, Gpp(NH)p present
Protocol: Membranes were also obtained from porcine striatial cells as follows. […] The homogenate was filtered through cotton gauze and centrifuged at 48,000g for 15 minutes at 4° C. […] The final pellet was frozen at −80° C. until used for receptor binding assays.

[1] = test system: rat isolated perfused heart; experiment: Reversal time of coronary vasodilation in rat isolated perfused hearts; details: bolus, rat isolated perfused heart;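 also: each agonist bolused at its minimal concentration giving equal maximal coronary conductance rise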
Protocol: FIG. 10. Reversal of effect of agonist stimulation on CC. […] CC was measured at 8, 16 and 24 minutes after administration (FIG. 10A). […] R and N are the correlation coefficient and number of agonists, respectively.
The relationship between the affinity of agonists for the A2A receptor and the rate of reversal of agonist-mediated responses (coronary vasodilation in heart and cAMP accumulation in PC12 cells) upon termination of drug administration were determined. […] The duration of the coronary vasodilation in isolated rat hearts caused by adenosine, the CVT compounds, and other agonists measured as the time to 50% and 90% (t0.5 and t0.9, respectively) reversal of the increases in coronary conductance after termination of drug administration are summarized in Table 4.

[2] = test system: rat isolated perfused heart; experiment: Coronary conductance / coronary perfusion pressure in isolated perfused rat hearts; details: for EC50: Rattus norvegicus
Protocol: Briefly, rats of either sex weighing 230-260 grams were anesthetized by intraperitoneal injection of a mixture of ketamine (100 mg/ml) and xylazine (20 mg/ml). The chest of each rat was opened and the heart removed, and rinsed in ice-cold modified Krebs-Henseleit (K-H) solution containing NaCl 117.9, KCl 4.5, CaCl2 2.5, MgSO4 1.18, KH2PO4 1.18, pyruvate 2.0 mmo/L. The aorta was cannulated and the heart was perfused at a flow rate of 10 ml/min with modified K-H solution. The K-H solution (pH 7.4) was gassed continuously with 95% O2 and 5% CO2 and warmed to 35±0.5° C. The heart was electrically paced at a fixed cycle length of 240 ms (250 beats/min) using a bipolar electrode placed in the left atrium. The electrical stimuli were generated by a Grass stimulator (Model S48, W. Warwick, R.I.) and delivered through a Stimuli Isolation Unit (Model SIU5, Astro-Med, Inc., NY) as square-wave pulses of 3-msec in duration and with an amplitude of at least twice the threshold intensity.
The identity of the adenosine receptor subtype (A1 or A2A) mediating the coronary vasodilation was determined.
Coronary perfusion pressure (CPP) was measured using a pressure transducer that was connected to the aortic cannula via a T-connector positioned approximately 3 cm above the heart. CPP was monitored throughout an experiment and recorded either on a chart recorder (Gould Recorder 2200S, Valley View, Ohio) or a computerized recording system (PowerLab/4S, ADInstruments Pty Ltd, Australia). Only hearts with CPP ranging from 60 to 85 mmHg (in the absence of drugs) were used in the study. CC conductance (in ml/min/mmHg) was calculated as the ratio between coronary perfusion rate (10 ml/min) and CPP.

[3] = Coronary blood flow and reversal time, intracoronary infusion in open-chest anesthetized pigs; assay type: in vivo
Protocol: The magnitude of the effect of A2A adenosine receptor agonists on coronary dilation and the duration of the effect was determined in pigs weighing 22-27 kg. […] In addition, animals were used in accordance with the guidelines of the University of Kentucky Institutional Animal Care and Use Protocol.
Anesthesia was maintained with additional sodium pentobarbital (1.5-2 mg/kg, i.v.) every 15-20 minutes. Animals were ventilated via a tracheotomy tube using a mixture of room air and 100% O2. Tidal volume, respiratory rate and fraction of O2 in inspired air were adjusted to maintain arterial blood gas (ABG) and pH values. […] Lactate Ringers solution was administered via an ear or femoral vein as an initial bolus of 300-400 ml followed by a continuous infusion at a rate of 5-7 ml/kg/hr. A catheter was inserted into the femoral artery to monitor arterial blood pressure.
The heart was exposed through a median sternotomy and suspended in a pericardial cradle. Left ventricular pressure (LVP) was measured with a 5F high fidelity pressure sensitive tip transducer (Millar Instruments, Houston, Tex.) placed in the left ventricular cavity via an apical incision and secured with a purse string suture. A segment of the left anterior descending coronary artery (LAD), proximal to the origin of the first diagonal branch, was dissected free of surrounding tissue. A transit time perivascular flow probe (Transonic Systems Inc., Ithaca, N.Y.) was placed around this segment to measure CBF. Proximal to the flow probe, a 24-gauge modified angiocatheter was inserted for intracoronary infusions. […] The A2A adenosine receptors agonists were administered intracoronary.
Relationship between affinity of various agonists for A2A adenosine receptor and the reversal time of their effect to increase coronary conductance was determined in pigs. Each experiment was preceded by a 30-minute stabilization period following the completion of all instrumentation of the animal. Baseline hemodynamic data were then recorded and an intracoronary infusion of an A2A Adenosine receptors agonist was initiated. Each infusion was maintained for 4-5 minutes to allow LAD CBF to reach a steady-state, after which the infusion was terminated. The times to recovery of CBF by 50% (t0.5) and 90% (t0.9) of the difference from peak effect to baseline CBF were recorded. Ten to 15 minutes after CBF returned to pre-drug values a second infusion with a different agonist was started. […] Hemodynamic measurements were made prior to and following the initiation of the phenylephrine infusion. The phenylephrine infusion rate was adjusted during and following the infusions of the adenosine receptor agonists to maintain arterial blood pressure within 5 mmHg of pre-infusion values. The effect of a maximum of three different agonists was determined in each experiment.

[4] = molecular target: T1, human A1 adenosine receptors (Homo sapiens, UniProt P30542); experiment: Competitive radioligand binding, [3H]CPX, CHO-hA1AdoR membranes; details: in words
T1 construct: expressed in transfected cells
T1 sequence (P30542 1-326): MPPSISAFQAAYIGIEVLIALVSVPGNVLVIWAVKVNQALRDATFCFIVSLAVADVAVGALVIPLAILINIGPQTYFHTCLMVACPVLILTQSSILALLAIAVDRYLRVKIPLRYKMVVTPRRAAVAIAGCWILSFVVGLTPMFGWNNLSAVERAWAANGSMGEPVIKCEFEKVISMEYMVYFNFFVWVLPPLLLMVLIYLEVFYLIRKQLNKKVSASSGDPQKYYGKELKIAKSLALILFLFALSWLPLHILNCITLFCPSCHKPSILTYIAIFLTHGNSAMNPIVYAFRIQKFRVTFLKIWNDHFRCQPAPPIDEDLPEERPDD
Protocol: The cell suspensions were homogenized and centrifuged at 48,000g for 15 minutes. The pellets were washed three times by re-suspension in ice-cold Tris-HCl buffer and centrifugation. The final pellet was re-suspended in Tris-HCl, aliquoted and frozen at −80° C. until used for receptor binding assays.

[5] = read-out: Ki, Pig Strialum (A2A)
[6] = read-out: pKi ± SEM, Pig Strialum (A2A) (converted)

Sequence of A2A adenosine receptors (K9IW67 1-409): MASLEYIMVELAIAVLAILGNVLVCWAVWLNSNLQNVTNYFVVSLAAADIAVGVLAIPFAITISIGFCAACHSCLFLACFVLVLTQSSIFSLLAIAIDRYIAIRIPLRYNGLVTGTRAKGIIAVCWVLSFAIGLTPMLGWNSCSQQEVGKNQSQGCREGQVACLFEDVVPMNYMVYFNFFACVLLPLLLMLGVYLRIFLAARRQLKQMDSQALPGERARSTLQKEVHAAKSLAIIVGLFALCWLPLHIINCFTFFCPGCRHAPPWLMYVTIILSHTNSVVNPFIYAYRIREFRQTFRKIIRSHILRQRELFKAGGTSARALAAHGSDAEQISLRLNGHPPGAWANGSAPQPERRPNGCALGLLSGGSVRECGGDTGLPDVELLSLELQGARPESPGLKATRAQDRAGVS

Row | SMILES | Ki (A2A adenosine receptors; [5]) [nM] | t0.5, time to 50% reversal of the increase in coronary conductance [1] [min] | t0.9, time to 90% reversal of the increase in coronary conductance [1] [min] | other results
1 | Cc1ccc(-c2cnn(-c3nc(N)c4ncn([C@@H]5O[C@H](CO)[C@@H](O)[C@H]5O)c4n3)c2)cc1 | 502 | 13.6 ± 1.3 | 18.9 ± 1.9 | Ki (A2A adenosine receptors; [6]): 490 nM
2 | CCNC(=O)[C@H]1O[C@@H](n2cnc3c(N)nc(NCCc4ccc(CCC(=O)O)cc4)nc32)[C@H](O)[C@@H]1O [CGS21680, 2-p-(2-carboxy-ethyl) phenethyl-amino-5′-N-ethylcarboxamido-adenosine, reference compound] |  |  |  | decrease in coronary perfusion pressure ([2]; 100 nM, isolated rat heart): 23 mmHg; EC50 ([2]; read-out: EC50, Coronary Conductance (Rat Isolated Heart)): 0.54 nM; EC50 ([2]; read-out: pEC50 ± SEM, Coronary Conductance (Rat Isolated Heart) (converted)): 0.537 nM; effect on coronary conductance ([2]; isolated rat hearts, in words): concentration-dependent increases in coronary conductance; t0.5 reversal of increase in coronary blood flow ([3]; 2 ug/kg/min intracoronary): 9.7 ± 0.8 min; t0.9 reversal of increase in coronary blood flow ([3]; 2 ug/kg/min intracoronary): 21.4 ± 0.8 min; affinity for the A1 receptor expressed by CHO-K1 cells [4]: relatively low affinities
3 | C[C@H](Cc1ccccc1)Nc1ncnc2c1ncn2[C@@H]1O[C@H](CO)[C@@H](O)[C@H]1O [R-PIA, Phenylisopropyladenosine, reference compound] | 1110 |  |  | pKi ± SEM, Pig Strialum (A2A) (A2A adenosine receptors): 5.96 ± 0.06
4 | CCCCC#Cc1nc(N)c2ncn([C@@H]3O[C@H](C(=O)NCC)[C@@H](O)[C@H]3O)c2n1 [HENECA, 2-hexynyladenosine-5′-N-ethyl-, reference compound] | 7.96 | 28.6 ± 1.1 | 32.8 ± 3.1 | pKi ± SEM, Pig Strialum (A2A) (A2A adenosine receptors): 8.10 ± 0.08
5 | Nc1nc(-n2cc(-c3ccc(Cl)cc3)cn2)nc2c1ncn2[C@@H]1O[C@H](CO)[C@@H](O)[C@H]1O [CVT-3141, (4S,2R,3R,5R)-2-{6-amino-2-[4-(4-chlorophenyl)pyrazole]purin-9-yl}-5-(hydroxymethyl)oxolane-3,4-diol] |  | 14.4 ± 1.9 | 21.3 ± 3.9 | 
6 | CCCCCCC#Cc1nc(N)c2ncn([C@@H]3O[C@H](CO)[C@@H](O)[C@H]3O)c2n1 [YT-146, reference compound] | 16.3 | 17.7 ± 1.0 | 25.8 ± 4.0 | CBF (fold-increase) ([3]; 1 ug/kg/min intracoronary): 3.44 ± 0.47 fold; t0.5 reversal of increase in coronary blood flow ([3]; 1 ug/kg/min intracoronary): 17.8 ± 3.4 min; t0.9 reversal of increase in coronary blood flow ([3]; 1 ug/kg/min intracoronary): 32.9 ± 5.6 min; pKi ± SEM, Pig Strialum (A2A) (A2A adenosine receptors): 7.86 ± 0.33

Continued, in another order:

Row | Ki (A2A adenosine receptors; [5]) [nM] | SMILES | t0.5, time to 50% reversal of the increase in coronary conductance [1] [min] | t0.9, time to 90% reversal of the increase in coronary conductance [1] [min] | other results
7 | 1670 | Nc1nc(-c2cnn(CCCc3ccccc3)c2)nc2c1ncn2[C@@H]1O[C@H](CO)[C@@H](O)[C@H]1O [CVT-3126, (4S,2R,3R,5R)-2-{6-amino-2-[1-(3-phenylpropyl)pyrazol-4-yl]purin-9-yl}-5-(hydroxymethyl)oxolane-3,4-diol] | 8.3 ± 0.4 | 12.6 ± 0.3 | 
8 | 697 | Cc1ccc(-c2nc(N)c3ncn([C@@H]4O[C@H](CO)[C@@H](O)[C@H]4O)c3n2)s1 [CVT-3100] | 5.1 ± 0.6 | 10.1 ± 0.2 | 
9 | 1010 | Nc1nc(-c2cccs2)nc2c1ncn2[C@@H]1O[C@H](CO)[C@@H](O)[C@H]1O [CVT-3003, (4S,2R,3R,5R)-2-(6-amino-2-(2-thienyl)pruin-9-yl)-5-(hydroxymethyl)oxolane-3,4-diol] | 3.4 ± 0.1 | 9.2 ± 2.2 | 
10 | 94 | N#Cc1ccc(OCC#Cc2nc(N)c3ncn([C@@H]4O[C@H](CO)[C@@H](O)[C@H]4O)c3n2)cc1 [CVT-3101, 4-(3-{9-[(4S,2R,3R,5R)-3,4-dihydroxy-5-(hydroxymethyl)oxolan-2-yl]-6-aminopurin-2-yl}prop-2-ynyloxy)benzenecarbonitrile] | 16.7 ± 0.5 | 25.6 ± 0.3 | 
11 | 64 | Nc1nc(C#CCOc2ccccc2Cc2ccccc2)nc2c1ncn2[C@@H]1O[C@H](CO)[C@@H](O)[C@H]1O [CVT-3006, (4S,2R,3R,5R)-2-(6-amino-2-{3-[2-benzylphenoxy]prop-1-ynyl}purin-9-yl)-5-(hydroxymethyl)oxolane-3,4-diol] | 16.1 ± 0.1 | 21.8 ± 2.0 | Ki (A2A adenosine receptors; [6]): 57.5 nM
12 | 64 | CCOC(=O)c1cnn(-c2nc(N)c3ncn([C@@H]4O[C@H](CO)[C@@H](O)[C@H]4O)c3n2)c1 [CVT-3127, ethyl 1-{9-[(4S,2R,3R,5R)-3,4-dihydroxy-5-(hydromethyl)oxolan-2-yl]-6-aminopurin-2-yl}pyrazole-4-carboxylate] | 14.8 ± 2.1 | 15.0 ± 0.8 | Ki (A2A adenosine receptors; [6]): 60.3 nM
